{"source": "patent EP1097956A1", "about": "“Low endocrine disruptor polycarbonate resin” (Mitsubishi Gas Chemical Company, Inc., priority 1999, dated 2001)", "note": "pIC50: −log10 of the molar value."}
{"system": "rat", "assay": "not given", "conditions": "cited from earlier work", "units": {"dosage by which the action like the female hormone was developed": "mg/kg/day"}}
{"molecule": "CC(C)(c1ccc(O)cc1)c1ccc(O)cc1", "note": "[BPA, 2,2-bis(4-hydroxyphenyl) propane]", "dosage by which the action like the female hormone was developed": 800}
{"system": "pregnant mice", "assay": "not given", "conditions": "2 and 20 µg/kg/day dosed orally to pregnant mice; cited from earlier work"}
{"molecule": "CC(C)(c1ccc(O)cc1)c1ccc(O)cc1", "note": "[BPA, 2,2-bis(4-hydroxyphenyl) propane]", "efficiency of sperm production in male offspring": "decrease in the efficiency of sperm production", "prostate weights in male offspring": "increase in prostate weights"}
{"system": "not given", "assay": "not given", "conditions": "stipulated by the U. S. Environmental Protection Agency and the Japanese Ministry of Health and Welfare; cited from earlier work", "units": {"acceptabel daily intake": "µg/kg/day"}}
{"molecule": "CC(C)(c1ccc(O)cc1)c1ccc(O)cc1", "note": "[BPA, 2,2-bis(4-hydroxyphenyl) propane]", "acceptabel daily intake": 50}
{"molecular_target": "T1, estrogen receptor (Rattus norvegicus, UniProt P06211)", "T1 construct": "from tissue; host or cells: uterus of matured female rat, homogenate supernatant (105,000 x G)", "T1 sequence (P06211 1-600)": "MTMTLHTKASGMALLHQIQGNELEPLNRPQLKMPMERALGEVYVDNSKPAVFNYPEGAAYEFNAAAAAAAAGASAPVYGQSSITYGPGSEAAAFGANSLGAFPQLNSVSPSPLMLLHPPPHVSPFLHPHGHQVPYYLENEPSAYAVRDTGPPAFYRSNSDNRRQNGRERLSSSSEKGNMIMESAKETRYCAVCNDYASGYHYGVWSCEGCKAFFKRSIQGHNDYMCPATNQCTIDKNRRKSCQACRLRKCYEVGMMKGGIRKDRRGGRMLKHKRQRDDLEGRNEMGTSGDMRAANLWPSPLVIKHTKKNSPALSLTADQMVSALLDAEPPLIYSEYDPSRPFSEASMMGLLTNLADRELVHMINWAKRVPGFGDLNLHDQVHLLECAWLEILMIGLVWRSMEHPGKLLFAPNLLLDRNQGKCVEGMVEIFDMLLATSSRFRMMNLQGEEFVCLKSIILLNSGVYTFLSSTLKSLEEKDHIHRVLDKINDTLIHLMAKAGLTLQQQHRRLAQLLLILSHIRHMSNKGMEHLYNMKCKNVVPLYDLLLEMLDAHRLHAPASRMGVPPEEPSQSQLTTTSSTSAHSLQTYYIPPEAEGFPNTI", "assay": "estrogen receptor affinity by exchange curve method ([3H]-estradiol displacement, membrane specimen from rat uterus)", "format": "binding", "conditions": "IC50, evaluated sample itself (bisphenols, phenols); concentration necessary to exchange 50% of estrogen bound receptor", "description": "(§1) The smaller the numeral value, the higher is affinity between a chemical substance and estrogen receptor, i.e., the higher is so-called endocrine disruptor. […]\n(§2) Appendix J and \"Medication receptor\" P33-34, edited by Kazunari Takayanagi, Nanzando in Japan.\n(§3) Firstly, a matured female rat was butchered and then its uterus was taken out. Then, fatty portions adhered to tissue portion of the uterus were removed and the uterus removed fatty portions was weighed and then placed in ice. The tissue was sliced so as to form a corner of 1 to 2 mm and. The sliced tissue was put in a Polytron homogenizer cooled in advance in ice and ice cooled TEDG buffer solution (10 mM tris·HCl((pH 7.6), 1.5 mM EDTA, 1 mM DTT and 10 % Glycerol) of 1.0 ml per 50 mg of tissue was added therein and homogenized for 5 seconds. The homogenate was put in a centrifugal tube cooled in advance and centrifuged for 60 minutes at 105,000×G(gravitational unit), whereby a supernatant liquid was obtained as a membrane specimen containing estrogen receptor.\n(§4) Each the reaction solution thus prepared was vacuum dried and then placed in ice.\n(§5) 1 ml of the above-prepared supernatant liquid of homoginate containing estrogen receptor was added to each tube and softly stirred and then each tube was capped to incubate at 4 °C for 20 hours. Each mixed solution was poured on a filter attached a glass filter paper and aspiration filtered and then the glass filter paper was rinsed with an ice cooled rinsing buffer solution (50 mM Tris·HCl (pH7.6)). Each the glass filter paper was dried and then each radioactivity was measured with a liquid scintillation counter."}
{"molecule": "Cc1cc(C2(c3ccc(O)c(C)c3)c3ccccc3-c3ccccc32)ccc1O", "note": "[BCFL, 9,9-bis(3-methyl-4-hydroxyphenyl) fluorene]", "pIC50": "< 3.58"}
{"molecule": "CC(C)(C)c1ccc(O)cc1", "note": "[p-t-butyl phenol]", "pIC50": 3.76}
{"molecule": "Oc1ccc(C2(c3ccc(O)cc3)CCCCC2)cc1", "note": "[BPZ, 1,1-bis(4-hydroxyphenyl) cyclohexane]", "pIC50": "> 6.43"}
{"molecule": "CC(C)(c1ccc(O)cc1)c1cccc(C(C)(C)c2ccc(O)cc2)c1", "note": "[BPM, 4,4'-[1,3-phenylenebis(1-methylethylidene)] bisphenol]", "pIC50": "> 6.54"}
{"molecule": "C=C(CC(C)(C)c1ccc(O)cc1)c1ccc(O)cc1", "note": "[PIPLD, 4-methyl-2,4-bis(4-hydroxyphenyl)-1-pentene]", "pIC50": "> 6.43"}
{"molecule": "CC1CC(C)(C)CC(c2ccc(O)cc2)(c2ccc(O)cc2)C1", "note": "(centres unmarked) [TMBPZ, 3,3,5-trimethyl-1,1-bis(4-hydroxyphenyl)cyclohexane]", "pIC50": "> 6.49"}
{"molecule": "Oc1ccc(C(c2ccccc2)(c2ccccc2)c2ccc(O)cc2)cc1", "note": "[BPBP, bis(4-hydroxyphenyl)diphenyl methane]", "pIC50": 5.19}
{"molecule": "CCCCCCCCCc1ccc(O)cc1", "note": "[NP, 4-nonylphenol]", "pIC50": 5.39}
{"molecular_target": "T1, estrogen receptor", "assay": "estrogen receptor affinity by exchange curve method ([3H]-estradiol displacement, membrane specimen from rat uterus)", "format": "binding", "conditions": "evaluated sample itself (bisphenols, phenols); concentration necessary to exchange 50% of estrogen bound receptor; read-out: IC50 (converted)", "description": "as §1, §2, §3, §4, §5", "units": {"IC50": "µM"}}
{"molecule": "Oc1ccc(C(c2ccc(O)cc2)(C(F)(F)F)C(F)(F)F)cc1", "note": "[BPAF, 2,2-bis(4-hydroxyphenyl) hexafluoropropane]", "IC50": "< 0.297"}
{"molecule": "Oc1ccc(Cc2ccc(O)cc2)cc1", "note": "[BPF, bis(4-hydroxyphenyl)methane]", "IC50": 6.99}
{"molecule": "Cc1cc(C2(c3cc(C)c(O)c(C)c3)c3ccccc3-c3ccccc32)cc(C)c1O", "note": "[BXFL, 9,9-bis(4-hydroxy-3,5-dimethylphenyl) fluorene]", "IC50": "< 4.18"}
{"molecule": "CC1(C)CC2(CC(C)(C)c3ccc(O)cc32)c2cc(O)ccc21", "note": "[SPI, 6,6'-dihydroxy-3,3,3',3'-tetramethyl-1, 1'-spiro biindan]", "IC50": 2.92}
{"molecule": "Oc1ccc(Sc2ccc(O)cc2)cc1", "note": "[TDP, bis(4-hydroxyphenyl) sulfide]", "IC50": "< 0.458"}
{"molecule": "Oc1ccc(C2(c3ccc(O)cc3)c3ccccc3-c3ccccc32)cc1", "note": "[BPFL, 9,9-bis(4-hydroxyphenyl) fluorene]", "IC50": "< 8.85"}
{"molecule": "CC(c1ccccc1)(c1ccc(O)cc1)c1ccc(O)cc1", "note": "[BPAP, 1,1-bis(4-hydroxyphenyl)-1-phenylethane]", "IC50": 1.72}
{"molecule": "CC(C)(c1ccc(O)cc1)c1ccc(O)cc1", "note": "[BPA, 2,2-bis(4-hydroxyphenyl) propane]", "IC50": 32}
